The numbers were not newly measured in patent US12121558B2 (priority 2019, dated 2024), which cites them from elsewhere.

Regarding `O=c1c(O)c(-c2ccc(O)c(O)c2)oc2cc(O)cc(O)c12` [quercetin, Quercetin], for the setting “after oral ingestion of quercetin containing foods or supplements”, the elimination half-life is 1 to 2 h. Besides, the bioavailability (in humans, low and highly variable) was 0-50%.
